These results are taken from US20170240570A1, “NOVEL SMALL MOLECULE ANTICANCER AGENTS” (UNIVERSITY OF FLORIDA RESEARCH FOUNDATION, priority 2014, published 2017).

Common to all, as to assay type: cell-based, human
Assay [1] concerns HER2, EGFR, Akt, Erk, S6, PARP in HCC1954 cells. The assay is described as follows: Immunoblot analysis of treated cells.
Description: Immunoblot analysis of HCC1954 cells treated as in 8B.
A further assay deals with HCC1954 cells. The experiment in a line: Viability in MTT assay. Particulars: 24 h.
The test system of assay [2] is EGFR, HER2, HER3, Akt, Erk, PARP in MDA-MB-468 cells. The assay is described as follows: Immunoblot analysis of treated cells. On the procedure: FIG. 3. depicts 3A) the analysis of MDA-MB-468 cells treated as indicated for 24 h by immunoblot for levels of EGFR and EGFR phosphorylation. 3B) the analysis of MDA-MB-468 cells treated as indicated for 24 h by immunoblot for PARP cleavage. 3C) MDA-MB-468 cells were either left untreated, or treated with 20 μM NSC624205 for 24 hours. NSC624205-treated cells were then washed and incubated for the indicated periods in the absence of drug. EGFR electrophoretic mobility was analyzed by immunoblot. 3D) MDA-MB-468 cells were pretreated with 25 μM NSC624205 or vehicle for 15 hours and then either left untreated or stimulated for 15 minutes with 20 ng/ml EGF, after which cell extracts were analyzed by immunoblot. 3E) MDA-MB-468 cells were treated as indicated for 24 hours and analyzed by immunoblot.
FIG. 5. depicts 5A) Photomicrographs of MDA-MB-468 cells treated for 24 h with 20 μM of the indicated compounds. 5B) Immunoblot analysis of MDA-MB-468 cells treated as in 5A. […] 5D) Viability of BT474 or MDA-MB-468 cells treated for 24 h with the indicated drug at the specified concentrations was measured in MTT assays. Assays were carried out in triplicate and results were presented as the average±S.D. 5E) Proliferation of tert-immortalized human mammary epithelial cells (HMEC-tert) and MDA-MB-468, BT474, and SKBR3 breast cancer cells after incubation with the indicated concentrations of RBF3 for 24 h was measured in thymidine incorporation assays as described in FIG. 2D. 5F)-5H) The indicated cell lines were treated with the indicated compounds at 20 μM unless otherwise indicated for 24 h and analyzed by immunoblot.
To examine the reversibility of NSC624205 actions, MDA-MB-468 cells were treated for 24 hr with NSC624205 and then the compound was washed out and the cells were allowed to recover for various periods of time. […] To examine whether NSC624205 can suppress cellular responses to EGF, cells were stimulated with EGF either with or without NSC624205 treatment.
A general note: Immunoblotting shows a protein as a band on a membrane.

The subject of assay [3] is MDA-MB-468 breast cancer cells. The assay is described as follows: Cell viability / cell killing, photomicrographs of treated cells. The procedure:
(§1) FIG. 2. depicts 2A) Photomicrographs of MDA-MB-468 or BxPC3 cells treated for 24 hours with 25 μM NSC624205 or the vehicle control. 2B) MDA-MB-468 cells were treated for 24 hours with the indicated concentrations of NSC624203, NSC624204, and NSC624205 and cell viability (mass) was measured by crystal violet staining. 2C) Photomicrographs of MDA-MB-468, SKBR3, or MDA-MB-231 cells treated for 24 h with 10 μM NSC624205 or the vehicle control. 2D) Cell proliferation was measured by thymidine incorporation through the treatment of MDAMB-468 and SKBR3 cells for 24 hours with NSC624203, an EGFR/HER2 inhibitor, or a combination of the two compounds. Results are presented as the average of triplicate determinations±S.D. 2E) The indicated cancer cell lines were treated for 24 h with 20 μM NSC624205 or vehicle and cell extracts were analyzed by immunoblot. Actin serves as a loading control.
FIG. 5. depicts 5A) Photomicrographs of MDA-MB-468 cells treated for 24 h with 20 μM of the indicated compounds. 5B) Immunoblot analysis of MDA-MB-468 cells treated as in 5A. 5C) Chemical structures of Disulfide bond Disrupting Agents (DDAs) showing active compounds on the left side with the pharmacophore highlighted in red, along with the generic pharmacophore. […] The exception to this rule is NSC627175/DTDO, which represents a different pharmacophore. 5D) Viability of BT474 or MDA-MB-468 cells treated for 24 h with the indicated drug at the specified concentrations was measured in MTT assays. Assays were carried out in triplicate and results were presented as the average±S.D. 5E) Proliferation of tert-immortalized human mammary epithelial cells (HMEC-tert) and MDA-MB-468, BT474, and SKBR3 breast cancer cells after incubation with the indicated concentrations of RBF3 for 24 h was measured in thymidine incorporation assays as described in FIG. 2D. 5F)-5H) The indicated cell lines were treated with the indicated compounds at 20 μM unless otherwise indicated for 24 h and analyzed by immunoblot.
The sulfur atom in sulfinic acids can act as a nucleophile capable of breaking disulfide bonds. […]

The subject of assay [4] is T47D.Puro and T47D.EGFR cells. The experiment in a line: Thymidine incorporation, vector control versus EGFR overexpressing cells. As to conditions: 24 h, increasing concentrations. A general note: Dividing cells build labelled thymidine or BrdU into new DNA.
Assay [5] concerns SKBR3 cells. The assay is described as follows: Cell proliferation by thymidine incorporation. Particulars: 24 hours, same concentration. On the procedure: as §1
(§2) The sulfur atom in sulfinic acids can act as a nucleophile capable of breaking disulfide bonds. Therefore we obtained several sulfinate-containing compounds from the National Cancer Institute's Developmental Therapeutics Program (NCI/DTP) and, as an initial screen, examined their ability to decrease the viability of various human cancer cell lines. […] NSC624205 and two related compounds, NSC624203 and NSC624204, decreased cell viability by 50% in the range of 3.7-33 μM (FIG. 2B). […]

The test system of another assay is MDA-MB-468 cells. The assay is described as follows: Cell proliferation by thymidine incorporation. Particulars: 24 hours, same concentration. On the procedure:
as §1, §2

The subject of assay [6] is EGFR, Akt in EGFR overexpressing T47D cells. The experiment in a line: Immunoblot analysis of treated cells. Particulars: 20 μM, 24 hours. On the procedure: (§3) FIG. 4. depicts 4A) the treatment of vector control or EGFR overexpressing T47D cells with 20 μM NSC624205 or vehicle for 24 hours and then photographed. […] 4B) Cells treated as in 4A) were subjected to immunoblot analysis.

Assay [7] deals with EGFR, HER2, HER3, Akt, Erk in SKBR3 cells. The assay is described as follows: Immunoblot analysis of treated cells. Particulars: 20 μM, 24 h. On the procedure: as §1
FIG. 5. depicts 5A) Photomicrographs of MDA-MB-468 cells treated for 24 h with 20 μM of the indicated compounds. 5B) Immunoblot analysis of MDA-MB-468 cells treated as in 5A. […] 5D) Viability of BT474 or MDA-MB-468 cells treated for 24 h with the indicated drug at the specified concentrations was measured in MTT assays. […] 5F)-5H) The indicated cell lines were treated with the indicated compounds at 20 μM unless otherwise indicated for 24 h and analyzed by immunoblot. […]

The subject of assay [8] is T47D cells with enforced EGFR expression (T47D.EGFR). The assay is described as follows: Cell death, photographs of treated cells. As to conditions: 20 μM, 24 hours. On the procedure:
as §3

For assay [9], the system named is T47D cells (vector control). The assay is described as follows: Cell death, photographs of treated cells. On the procedure: as §3
Another assay concerns Erk in T47D cells. The experiment in a line: Immunoblot analysis of treated cells. As to conditions: 20 μM, 24 h. The procedure:
as §1, §2

Assay [10] concerns BxPC3 pancreatic cancer cells. The experiment in a line: Cell viability, photomicrographs of treated cells. As to conditions: 25 μM, 24 hours. The procedure: as §1, §2
Assay [11] deals with MDA-MB-231 breast cancer cell line. The assay is described as follows: Cell killing, photomicrographs of treated cells. Particulars: 10 μM, 24 hr. The procedure:
as §1, §2

Assay [12] relates to SKBR3 cells. The assay is described as follows: Cell killing, photomicrographs of treated cells. As to conditions: 10 μM, 24 hr. The procedure:
as §1, §2

Setting [13] is: 25 μM pretreatment 15 hours, 20 ng/ml EGF 15 minutes.
The mark [14] stands for this setting: 24 h, increasing concentrations.

The structures appear in SMILES notation. “Also recorded” adds a separate entry of the source.

With `CS(=O)(=O)CCNCc1ccc(-c2ccc3ncnc(Nc4ccc(OCc5cccc(F)c5)c(Cl)c4)c3c2)o1` [Lapatinib], the Akt phosphorylation result in assay [1] (24 h, 20 μM RBF3, 100 nM Rapamycin, 20 μM Lapatinib) is “without affecting”. In addition, the Erk phosphorylation result in assay [1] (24 h, 20 μM RBF3, 100 nM Rapamycin, 20 μM Lapatinib (FIG. 8C)) was “reduced”. The “response of cell viability to single drug” value in the assay with HCC1954 cells is “slightly more responsive”.
For the compound `O=S(O)CCCCSSSCCCCS(=O)O` [NSC333839], the “EGFR and Akt phosphorylation” value in assay [2] (20 μM, 24 h) is reported as “activity similar to NSC624205”. Moreover, in assay [3] (20 μM, 24 h, panel of sulfinate-containing compounds), the cell viability result is “activity similar to NSC624205”.
As to `O=S(O)CCCCSSCC(O)CO` (stereo not drawn) [NSC606968], in [2] (20 μM, 24 h), the Akt phosphorylation entry was “weak effect” and the EGFR electrophoretic mobility entry is given as “partial effect”.
For the compound `O=S(O)CCCCSSCC(O)C(O)CSSCCCCS(=O)O` (stereo not drawn) [NSC624203], the “decreasing Akt phosphorylation, increasing PARP cleavage, reducing EGFR and overall cellular tyrosine phosphorylation, compared with AG490 or EGFR/HER2 kinase inhibitor” value in [2] (24 hours) is recorded as “more effective”. In addition, in [4], the “sensitivity of proliferation of EGFR overexpressing T47D cells relative to control cells” value was “more sensitive”. Further, the “inhibition of proliferation compared with commercial EGFR/HER2 tyrosine kinase inhibitor (Calbiochem #324673)” value in the assay on SKBR3 cells [5] and in the assay on MDA-MB-468 cells was “more effectively suppressed” throughout.
For the compound `O=S(O)CCCCSSCCCCSSCCCCS(=O)O` [NSC624205], the Erk phosphorylation result was “inhibiting” in [1] (20 μM NSC624205, 24 h (FIG. 2E)); “inhibiting” in assay [7]; “inhibiting” with Erk in T47D cells. Also, the Akt phosphorylation result is given as “decreased” in assay [6] and “inhibiting” in [7]. Besides, the EGFR electrophoretic mobility entry in assay [6] is listed as “electrophoretic mobility shift”; in assay [2] (setting [14]) it was “concentration-dependent increase”. In [8], the cell death result is on record as “Extensive cell death; also recorded: underwent cell death”. The cell killing result in [9] is given as “not killed”; in assay [3] (10 μM, 24 hr) it was “killed”; in assay [11], “little effect”; in the assay with SKBR3 cells [12] it was “killed”. Also, the “EGFR electrophoretic mobility after washout (reversibility)” value in [2] (20 μM for 24 hours, then 24 hours post-treatment without drug) is reported as “restored to near control levels”. Also, the “EGFR tyrosine phosphorylation on Tyr845, EGF-induced” value in [2] (setting [13]) is listed as “decreased”. Also, in assay [2] (setting [13]), the “overall EGF-induced cellular tyrosine phosphorylation” value is “decreased”. In addition, in assay [2] (setting [14]), the “EGFR phosphorylation (phospho-specific antibody)” value is “decrease”. Besides, the PARP cleavage result in [2] (setting [14]) is on record as “concentration-dependent increase”. For the same compound, the cell viability entry is “lethal” in [3] (25 μM, 24 hours) and “little effect” in assay [10].
